From patent US20130045943A1, “A3AR AGONISTS FOR THE TREATMENT OF UVEITIS” (THE GOVERNMENT OF THE UNITED STATES OF AMERICA AS …, priority 2010, published 2013)
Entries after “also recorded” stand apart in the source; their conditions may differ.

Columns and labels:
Water solubility = format: physicochemical
[1] = system: experimental acute uveitis (EAU) induced with IRBP in C57BL/6j mice; assay: EAU in mice, histopathological grading of enucleated eyes; format: in vivo
[2] = system: antigen-specific (IRBP) responses of T cells; assay: In vitro antigen-driven proliferation assay (3[H]-thymidine incorporation) of drain lymph node cells from treated mice; format: cell-based, C57BL/6j mice; conditions: lymph node cells from treated animals, cultured 48 hours with IRBP 0.2-20 μg/ml
Procedure: To explore the immunological effects of IB-MECA on the antigen-specific responses of T cells, an in vitro antigen-driven proliferation assay was performed. Drain lymph nodes (inguinal and iliac) were collected from the IRBP immunized mice, both from the vehicle and from the IB-MECA treated groups. The cells were cultured for 48 hours in the presence of graded doses of IRBP (0.2-20 μg/ml) and proliferation was evaluated by an ^3[H]-thymidine incorporation assay.

[3] = system: experimental acute uveitis (EAU) induced with IRBP in C57BL/6j mice; assay: Experimental autoimmune uveitis (EAU) in mice, disease intensity scored by funduscopy; format: in vivo; conditions: for inhibition of fundoscopy score: oral IB-MECA 10 μg/kg twice daily from day 7

CNC(=O)[C@H]1OC(n2cnc3c(NCc4cccc(I)c4)ncnc32)[C@H](O)[C@@H]1O (stereo partly drawn) [IB-MECA, 1-Deoxy-1-[6-[[(3-iodophenyl)methyl]amino]-9H-purine-9-yl]-N-methyl-D-ribofuranuronamide]
water solubility (Water solubility): not water soluble | histopathological score of EAU (FIG. 2) ([1]; result in words): decreased | inhibition of pathological score in comparison to the vehicle-treated group ([1]; upon study termination, oral IB-MECA 10 μg/kg twice daily from day 7): 53% | T cell response to IRBP (proliferation) [2]: moderate response; also recorded: ameliorates | inhibition of fundoscopy score ([3]; day 16 after immunization): 91% | inhibition of fundoscopy score ([3]; day 20 after immunization): 49.4% | development of EAU (FIG. 1) ([3]; result in words): inhibited
